Data set [1] in a line: Prolonged storage of TqLPNG examined through size-exclusion chromatography. It counts as physicochemical. The procedure:
FIG. 12: Accumulation of high order associates of TqLPNGh during its prolonged storage in the salt-free 50 mM HEPES (pH 7.5)/0.1 mM EDTA buffer at 4° C., examined through size-exclusion chromatography. The purified TqLPNG preparation (at ˜ 9 μM protein concentration) was stored at 4° C. in plain He buffer (containing 0.25 mM DTT and 0.25 mM TCEP) at 4° C. for about 3 weeks. 0.25 mL of the TqLPNGh solution was then mixed the equal volume of the appropriate buffer to get 0, 0.15 or 0.3 M NaCl final concentration. Following 1-2 hrs incubation (at 4° C.), the diluted protein was injected into Superdex 20010/300 column equlibrated with He, He+0.15 M NaCl or He+0.3 M NaCl buffer, respectively. The protein elution was detected through absorbance at 280 nm. The flow rate was 0.5 mL/min. The large overlapping peaks at 9-12 elution volume correspond to high order TqLPNG associates. Positions of peakes corresponding to TqLPNG dimer or monomer are marked with the arrows.
The reasonable question that follows deciphering the origin of the TqLPNG fluorescence emission response towards BAI-2 binding is to understand the optimal conditions for the biosensor-based determination of BAI-2 concentrations. Low NaCl conditions provide an increased change in acceptor-to-donor emission ratio for the BAI-2 binding favorable for accurate BAI-2 quantification. […] Thus, there should by a compromise between the binding amplitude of the observable signal (i.e., the decrease in the acceptor-to-donor emission ratio corresponding to fully saturated biosensor) and stability of the TqLPNG preparation (against the formation of high order associates).
A general note: SEC sorts molecules by how far they enter the pores of the column.

Data set [2] in a line: TqLPNG fluorescence emission response towards BAI-2 binding at different NaCl concentrations. It counts as biochemical. The procedure:
FIG. 8 (A-B): Response of the fluorescence emission spuctrum of TqLPNGh towards BAI-2 binding at different concentrations.of sodium chloride. Emission spectra (solid lines) were deconvoluted into the donor (dotted lines) and the acceptor (dashed lines) emission components, and the evaluation for the FRET efficiency (E values) was performed through enhancement in the acceptor emission referenced to the directly excited acceptor emission (the grey lines) as described under Materials and Methods. The spectra were recorded by using an excitation wavelength of 440 nm. Measurements were performed in a 50 mM HEPES (pH 7.5)/0.1 mM EDTA buffer (containing the specified amount of NaCl) with 50 nM TLPNGh.
FIG. 9: An example of fluorescence emission spectrum of TqLPNGh and its response to BAI-2 binding. (9A) Emisson spectra of 50 nM TqLPNGh in 50 mM HEPES (pH 7.5)/0.1 mM EDTA buffer in the absence (the grey line) and in the presence of 10 μM BAI-2 (the black line). The spectra were recorded by using a 440 nm excitation wavelength. (9B) Dependence of the BAI-2 binding TqLPNGh emission response (expressed as decrease in acceptor-to-donor emission ratio induced by BAI-2 binding) on concentration of NaCl.
TqLPNG fluorescence response towards BAI-2 binding was examined at different concentrations of NaCl (see FIG. 8). At any salt concentration, BAI-2 binding yielded an increase in the biosensor donor emission and the corresponding decrease in the acceptor emission, originated from the ligand-induced decrease in FRET between the donor and the acceptor chromophores. Indeed, for any salt concentration BAI-2 binding caused a decrease in FRET efficiency (follow the E-values in FIG. 8) and associated decrease in the acceptor-to-donor emission ratio. […] The observable BAI-2 binding amplitude was maximal at low salt buffer (−49%), strongly dropped at 0.15 M and became too small (for BAI-2 quantification applications) at 0.3 M and higher NaCl concentrations. […]
A Cary 300 spectrophotometer (Agilent/Varian Technologies) and FluoroMax fluorescence spectrophotometer (Horiba Scientific) equipped with Peltier-based temperature controlled cell holders were used for absorbance and fluorescence measurements, respectively. […] Fluorescence emission spectra were recorded in a 4 mm fluorescence cell by using 2 nm slit width at both excitation and emission monochromators. Typically, 50 nM protein concentrations were employed for fluorescence measurements. […]
FRET efficiency in TqLPNG was determined under variety of solution conditions by measurements of the emission spectra of TqLPNG (DA-species) alternatively excited at 440 nm and 505 nm. […]

The nature of data set [3]: Control experiments for photo-bleaching. The following applies: three consecutive spectrum records, 20° C. It is filed as physicochemical.
Protocol: For measurements associated with examination of ligand-induced response of TqLPNG biosensor fluorescence emission 0.1 mM BAI-2 stock solution was freshly prepared and contained 1 mM DPD and 4 mM boric acid in 50 mM HEPES buffer (pH 7.5) (Semmelhack et al., 2005). To test the biosensor fluorescence response for BAI-2 binding 400 μL samples having the same biosensor concentration (50 nM) and variable BAI-2 concentrations in 50 mM HEPES (pH 7.5)/0.4 mM boric acid/0.1 mM EDTA/0.15 M NaCl were prepared from the protein and the ligand stock solutions using analytical balances. Fluorescence emission spectra were taken following 3 min temperature equilibration of the sample within the temperature controlled cell holder (set for 20° C.).
The nature of data set [4]: Titration of TqLPNGh biosensor with BAI-2 monitored through acceptor-to-donor emission ratio. It counts as binding. The procedure:
FIG. 13: Titration of TqLPNGh biosensor with autoinducer BAI-2 monitored through acceptor-to-donor emission ratio (A-to-D ratio). Measurements of TqLPNGh fluorescence emission spectra were performed in 50 mM HEPES (pH 7.5)/0.1 mM EDTA/0.4 mM boric acid//0.15 M NaCl buffer using 50 nM TqLPNGh. Emission spectra of TqLPNG were recorded by using 440 nm excitation. The values for the A-to-D ratio for the BIA-2 titration (the filled circles) were fitted to the phenomenological Hill equation to get BAI-2 concentration corresponding to the half decrease in A-to-D ratio (C50%). The values for A-to-D ratio corresponding to the control titration, i.e., titration of TqLPNGh with the ligand-free plain buffer, are shown as unfilled circles.
The values for D-to-A fluorescence ratio values BAI-2 concentration were plotted and then fitted with the phenomenological Hill equation or with the simple single site binding model. […] The presence of boric acid in the assay buffer (i.e., 50 mM HEPES (pH 7.5)/0.1 mM EDTA/0.15 M NaCl/0.4 mM boric acid) may be beneficial. Deficiency in boric acid may cause strong reduction in the apparent ligand affinity, yielding enhanced Kd-value and, therefore, a strong decrease in biosensor sensitivity.]
A Cary 300 spectrophotometer (Agilent/Varian Technologies) and FluoroMax fluorescence spectrophotometer (Horiba Scientific) equipped with Peltier-based temperature controlled cell holders were used for absorbance and fluorescence measurements, respectively. To characterize fluorescent proteins, all measurements (including TqLPNGh titration with BAI-2) were performed at 20° C. with proteins prepared in 50 mM HEPES buffer (pH 7.5)/0.1 mM EDTA, containing different NaCl concentrations. Fluorescence emission spectra were recorded in a 4 mm fluorescence cell by using 2 nm slit width at both excitation and emission monochromators. Typically, 50 nM protein concentrations were employed for fluorescence measurements. The protein stock solutions were prepared in 50 mM HEPES buffer (pH 7.5)/0.1 mM EDTA/0.3 M NaCl at 2 μM (for the TqLPNG) or 10 μM (for Tqh or NGh) concentration.

Where “and” joins values, the source holds several entries; their conditions need not be identical. Identical values can stand only once.

Take “TqLPNG: tripartite FRET biosensor fusion mTurquoise2-(24-365)LuxP-mNeonGreen; TqLPNGh carries C-terminal His6 tag (SEQ ID NO. 2), SEQ ID NO. 3 lacks it”: the “stability against formation of high order associates” value in data set [1] (0.3 M NaCl, prolonged storage at 4° C.) was “no formation of ‘inactive’ high-order associates”; in data set [1] (HEPES (pH 7.5) buffer containing 0.15 M NaCl), “good stability”; in data set [1] (prolonged storage in low salt buffer, 4° C.), “accumulation of high-order TqLPNG associates”. In data set [2] (50 mM HEPES (pH 7.5)/0.4 mM boric acid/0.1 mM EDTA, 0.15 M NaCl), the “magnitude of decrease of the acceptor-to-donor emission ratio on BAI-2 titration” value is listed as about 17%. The “observable BAI-2 binding amplitude” value in data set [2] (0.3 M and higher NaCl) is given as “too small”. Besides, in data set [2] (adjustable fluorescence response, maximum), the “decrease in the acceptor to donor emission ratio upon autoinducer-2 binding” value is recorded as “up to 48%”. Besides, the “observable BAI-2 binding amplitude (decrease in acceptor-to-donor emission ratio, fully saturated)” value in data set [2] (low salt buffer) is −49%. In data set [3], the “changes in the fluorescence spectrum (photo-bleaching control)” value was “no changes”. Besides, the EC50 in data set [4] (50 nM TqLPNG, 50 mM HEPES (pH 7.5)/0.1 mM EDTA/0.15 M NaCl/0.4 mM boric acid, Hill equation fit, read-out: BAI-2 concentration corresponding to the half-transition (C50%) in emission response) was determined as 24 ± 1 nM. Besides, in data set [4] (50 nM TqLPNG, 50 mM HEPES (pH 7.5)/0.1 mM EDTA/0.15 M NaCl/0.4 mM boric acid, single site binding model, read-out: BAI-2•TqLPNG dissociation constant (Kd)), the Kd (as a rule, the equilibrium constant for the complex coming apart) is 9 nM and 10 nM and ~10 nM. In addition, the “higher sensitivity towards BAI-2 concentration as compared to mCLPY biosensor” value in data set [4] (from dissociation constants 10 nM versus 270 nM) is “more than 10 fold”.

Source of the values: patent publication US20210285940A1, “Improved Fluorescent Resonance Energy Transfer-Based Biosensor Proteins And Their Methods of Use Thereof” (Pebble Labs Inc., priority 2018, published 2021).
